Source: PMC6630837 (Pharmaceuticals, 2019)
“Also recorded” adds a separate entry of the source. Where two headings read alike, the source gives them in different places.

Legend:
[1] = LogD7.4 determination (octan-1-ol/phosphate buffer, LC-MS); assay type: physicochemical
Method: LogD7.4 determination. The in-silico prediction tool ALOGPS [4] was used to estimate the octanol-water partition coefficients (log P) of the compounds. […] For each category, two different ratios (volume of octan-1-ol to volume of buffer) were defined as experimental parameters (Table 2).
Equal amounts of phosphate buffer (0.1 M, pH 7.4) and octan-1-ol were mixed and shaken vigorously for 5 min to saturate the phases. The mixture was left until separation of the two phases, and the buffer was retrieved. Stock solutions of the test compounds were diluted with buffer to a concentration of 1 μM. For each compound, three determinations per octan-1-ol:buffer ratio were performed in different wells of a 96-well plate. The respective volumes of buffer-containing analyte (1 μM) were pipetted to the wells and covered by saturated octan-1-ol according to the chosen volume ratio. […] The aqueous phase was transferred to a 96-well plate for analysis by liquid chromatography-mass spectrometry (LCMS, see below).
Results are presented as the mean ± SD of three independent experiments.
LC-MS measurements. […] The system was controlled with the Agilent MassHunter Workstation Data Acquisition software (version B.01.04). The column used was an AtlantisR T3 C18 column (2.1 × 50 mm) with a 3 μm-particle size (Waters Corp., Milford, MA, USA). The mobile phase consisted of eluent A: 10 mM ammonium acetate, pH 5.0 in 95:5, H2O:MeCN; and eluent B: MeCN containing 0.1% formic acid. The flow rate was maintained at 0.6 mL/min. […] MS parameters such as fragmentor voltage, collision energy, and polarity were optimized individually for each drug, and the molecular ion was followed for each compound in the multiple reaction monitoring mode. The concentrations of the analytes were quantified by the Agilent Mass Hunter Quantitative Analysis software (version B.01.04).

[2] = test system: SH-SY5Y neuroblastoma cells; assay: Cytotoxic activity of compounds alone, MTT cell viability assay; conditions: 24 h
Method: Neuroprotective assays in human neuroblastoma (SH-SY5Y) cells. SH-SY5Y cells were grown in Dulbecco’s Modified Eagle Medium (DMEM, Gibco, Life Technologies) supplemented with 10% fetal bovine serum (FBS, Biochrom GmbH) and 1% Penicillin-Streptomycin (Gibco, Life Technologies) in a humidified incubator at 37 °C, 5% CO2. For the neuroprotective activity assay, undifferentiated SGSY-5Y cells were plated onto 96-well flat-bottomed microtiter plates at a density of 1 × 10^4 cells/well in DMEM supplemented with 2% FBS and preincubated for 24 h at 37 °C, 5% CO2. Compounds (stored as 10 mM solutions in DMSO at −20 °C) were then added to achieve a final concentration of 50 μM and, after 30 min, cells were incubated in the presence or absence of 20 μM Aβ protein fragment 1-42 (Sigma-Aldrich, dissolved in DMSO and stored in 2 mM aliquots at −20 °C) or 100 μM of H2O2 (Sigma-Aldrich, dissolved to 10 mM in 0.9% NaCl aqueous solution immediately prior to the assay) overnight at 37 °C, 5% CO2. […] The following morning, 20 μL of a 5 mg/mL solution of 3-(4,5-dimethylthiazol-2-yl)-2,5-diphenyltetrazolium bromide (MTT, Sigma-Aldrich) in PBS (Gibco, Life Technologies) was added to each well and the plates were further incubated for 4 h at 37 °C, followed by the addition of DMSO (200 μL) to each well in order to dissolve the resulting formazan crystals. After 2 h incubating at 37 °C, the optical density (OD) at 540 nm (with a 620 nm reference filter) was measured in an Amersham Biosciences Biotrak II Plate Reader. The percentage of MTT reduction was determined according to Equation (1). […] Differences between experimental conditions were compared for statistical significance by one-way ANOVA followed by a Tukey’s post-test, an analysis carried out using GraphPad Prism Software (LA Jolla, CA, USA). Differences were considered significant when P < 0.05. In order to exclude direct MTT reduction, compounds were also tested in (a) the absence of cells and (b) in the absence of both cells and culture medium, using the same experimental conditions described above. (2) MTT Reduction (% of Control)=[ODsample−ODmedium/ODcell control−ODmedium] × 100 […]
Tabl e S2. Cytotoxic activity of each compound assessed in SH-SY5Y neuroblastoma cells via an MTT cell viability assay.a Comp ound Nr. MTT reduction (% control) p-va l u e vs . untreated cell control (unpai red t-t es t) […]
a Cells were incubated for 24 h at 37 °C, in the presence (50 μM) or absence of each compound.

[3] = test system: SH-SY5Y human neuroblastoma cells; assay: Neuroprotection against H2O2-induced toxicity, MTT cell viability assay; assay type: cell-based; conditions: 50 μM compound, 100 μM H2O2, 24 h, 37 °C
Description: Neuroprotective activity assays against H2O2-induced toxicity. On the basis of previously described protocols, the flavones and analogues herein synthesized were screened for their neuroprotective effects against H2O2-induced oxidative stress and neuronal damage in SH-SY5Y human neuroblastoma cells by means of a thiazolyl blue tetrazolium bromide (MTT) reduction-based cell viability assay.
Neuroprotective assays in human neuroblastoma (SH-SY5Y) cells. […] Differences were considered significant when P < 0.05.

[4] = target: acetylcholinesterase (AChE) (Electrophorus electricus, UniProt O42275); assay: Acetylcholinesterase inhibition, Ellman's colorimetric assay; assay type: biochemical; conditions: 100 µM compound; for inhibition at 100 µM: read-out: AChE inhibitory efficacy (percentage of inhibition)
Method: For cholinesterase inhibition tests (acetylcholinesterase (AChE, electrophorus
was kept within 1.25% cuvette concentration.
AChE and at 18.2 µM concentration for BuChE. […]

[5] = target: T1, butyrylcholinesterase (BuChE) (Equus caballus, UniProt P81908); assay: biochemical; conditions: for inhibition at 100 µM: read-out: BuChE inhibitory efficacy (percentage of inhibition)
T1 construct: (BuChE, equine serum); from tissue; host or cells: equine serum
Method: Experimental procedures for cholinesterase inhibition a s sa y s. For cholinesterase inhibition tests (acetylcholinesterase (AChE, electrophorus
el ec t r ic u s) a n d b ut yr ylcholinesterase (BuChE, equine serum), the Ellman’s cholorimetric assay1 was followed, with minor modifications. DMSO
was kept within 1.25% cuvette concentration. The chromogenic agent DTNB [5,5’-dithiobis(2-nitrobenzoic acid)] was fixed at 0.975 mM
con centration; 0. 1 M phosphate buffer (pH 8. 0) was employed, T = 25 °C, and the reaction was monitored for 125 s. […]
of inhibition, the substrate concentration (acetylthiocholine iodide for AChE; S- butyr ylthiocholine iodide for BuChE) was fixed at 29 µM for
AChE and at 18.2 µM concentration for BuChE.
Lineweaver-Burk plot (or double reciprocal plot, 1/V vs . 1/ [S ]) wa s u se d for estimating both, the mode of inhibition and the inhibition constants […]
Competitive inhibition (inhibitor only bonds the free enzyme):
KKiiii = [II ]KKMM iiaaaa
M i xe d inhibition (inhibitor binds both, the free and the complexed enzyme) :
Uncompetitive (the inhibitors only binds the complexed enzyme):
N on -competitive (inhibitor binds both the free enzyme and the complexed enzyme with equal affinity) :
Table S3. […]
of the synthesized flavone analogues at 100 µ M.
C omp ou n d N o. AChE B uChE

[6] = octan-1-ol/phosphate buffer pH 7.4, 25 °C
[7] = 50 μM compound alone, 37 °C, 0.5% DMSO, SH-SY5Y
[8] = octan-1-ol/phosphate buffer, pH 7.4, octan-1-ol/phosphate buffer pH 7.4, 25 °C, read-out: Log D7.4 (partition coefficient at pH 7.4)

Sequence of acetylcholinesterase (AChE) (O42275 24-633): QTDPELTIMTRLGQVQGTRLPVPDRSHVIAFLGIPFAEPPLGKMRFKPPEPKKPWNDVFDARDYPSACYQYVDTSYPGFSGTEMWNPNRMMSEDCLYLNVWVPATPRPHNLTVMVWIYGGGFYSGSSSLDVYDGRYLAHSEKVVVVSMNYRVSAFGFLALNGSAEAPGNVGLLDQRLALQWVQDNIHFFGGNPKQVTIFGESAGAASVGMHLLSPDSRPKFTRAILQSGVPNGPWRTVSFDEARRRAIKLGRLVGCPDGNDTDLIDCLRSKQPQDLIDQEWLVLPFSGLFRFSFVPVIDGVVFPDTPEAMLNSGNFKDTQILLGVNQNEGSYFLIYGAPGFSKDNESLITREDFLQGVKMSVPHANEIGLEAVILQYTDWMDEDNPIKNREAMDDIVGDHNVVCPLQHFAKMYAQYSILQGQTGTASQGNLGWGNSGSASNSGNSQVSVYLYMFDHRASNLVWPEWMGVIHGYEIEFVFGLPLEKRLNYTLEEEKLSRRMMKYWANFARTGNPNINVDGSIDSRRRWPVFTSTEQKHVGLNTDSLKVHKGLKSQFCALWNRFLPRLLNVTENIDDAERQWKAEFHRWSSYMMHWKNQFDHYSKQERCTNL
T1 sequence (P81908 whole entry): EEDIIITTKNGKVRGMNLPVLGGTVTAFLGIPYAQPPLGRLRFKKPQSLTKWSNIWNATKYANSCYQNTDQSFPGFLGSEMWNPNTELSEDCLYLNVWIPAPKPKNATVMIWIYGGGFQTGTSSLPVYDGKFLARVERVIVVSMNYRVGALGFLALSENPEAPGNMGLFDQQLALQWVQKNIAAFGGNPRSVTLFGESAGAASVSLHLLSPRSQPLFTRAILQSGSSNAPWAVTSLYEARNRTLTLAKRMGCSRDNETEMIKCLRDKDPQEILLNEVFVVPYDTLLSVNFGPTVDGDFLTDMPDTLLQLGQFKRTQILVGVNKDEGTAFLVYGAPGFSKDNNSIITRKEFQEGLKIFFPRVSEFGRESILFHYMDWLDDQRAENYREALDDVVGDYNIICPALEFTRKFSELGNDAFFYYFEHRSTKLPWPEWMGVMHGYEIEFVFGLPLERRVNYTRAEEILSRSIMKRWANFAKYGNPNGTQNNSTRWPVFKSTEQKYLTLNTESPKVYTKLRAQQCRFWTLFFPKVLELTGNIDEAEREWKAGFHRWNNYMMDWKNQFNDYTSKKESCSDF

Compound | MTT reduction (% control) [2, 7] | Neuroprotective effect against H2O2-induced toxicity (MTT cell viability) [3] | inhibition at 100 µM [5] [%] | logD [1, 8] | also measured
2-(Furan-2-yl)-8-(β-D-glucopyranosyl)-5,7-dihydroxy-4H-chromen-4-one [Compound 21] | 131.5 ± 11.0% | able to rescue cells from oxidative damage caused by H2O2; also recorded: able to produce a significant improvement in cell viability |  |  | Log D7.4 (partition coefficient at pH 7.4) [1, 6]: −0.2 ± 0.1
8-(β-D-Glucopyranosyl)-5,7-dihydroxy-4′-(pyrrolidin-1-yl)flavone [Compound 20] | 219.9 ± 16.9% |  |  |  | Log D7.4 (partition coefficient at pH 7.4) [1, 6]: 1.8 ± 0.2
O=c1cc(-c2ccccc2)oc2cc(O)cc(O)c12 [Compound 1, chrysin, reference compound] | 96.2 ± 26.9% | absence of significant effects | 64 |  | logD ([1]; octan-1-ol/phosphate buffer pH 7.4, 25 °C, read-out: Log D7.4 (partition coefficient at pH 7.4)): 3.6 ± 0.4; inhibition at 100 µM [4]: 18%; Ki [5]: 32 ± 4 µM; Butyrylcholinesterase inhibition, ranking in words ([5]; 100 µM compound): the most active butyrylcholinesterase inhibitor; Mode of inhibition ([5]; BuChE, Lineweaver-Burk plot): Non-* co mp etit iv e in hi bit io n
O=c1cc(C2CC2)oc2cc(O)cc(O)c12 [Compound 4, 2-Cyclopropyl-5,7-dihydroxy-4H-chromen-4-one] | 140.7 ± 12.0% | the increase was not significant | 30 | 2.9 ± 0.1 | inhibition at 100 µM [4]: 24%
O=c1cc(C2CCC2)oc2cc(O)cc(O)c12 [Compound 5, 2-Cyclobutyl-5,7-dihydroxy-4H-chromen-4-one] | 184.6 ± 30.2% | the increase was not significant |  | > 2.5 | 
CCC(C)c1cc(=O)c2c(O)cc(O)cc2o1 (stereo not shown) [Compound 6, 5,7-Dihydroxy-2-(1-methylpropyl)-4H-chromen-4-one] | 109.9 ± 18.7% | the increase was not significant | 46 | > 2.5 | AChE inhibitory efficacy (percentage of inhibition) [4]: n.i .; Butyrylcholinesterase inhibition, ranking in words ([5]; 100 µM compound): the most promising one; Mode of inhibition ([5]; BuChE, Lineweaver-Burk plot): Mixed inhibition; Ki ([5]; BuChE, Lineweaver-Burk plot, read-out: Kia (inhibition constant)): 44 ± 17 µM; Ki ([5]; BuChE, Lineweaver-Burk plot, read-out: Kib (inhibition constant)): 36 ± 8 µM
O=c1cc(-c2ccc(N3CCCC3)cc2)oc2cc(O)cc(O)c12 [Compound 9, 5,7-Dihydroxy-4′-(pyrrolidin-1-yl)flavone] | 163.6% ± 72.6 | able to produce statistically significant differences when compared to H2O2 controls | 32 |  | inhibition at 100 µM [4]: 27%
CN(C)c1ccc(-c2cc(=O)c3c(O)cc(O)cc3o2)cc1 [Compound 10, 4′-Dimethylamino-5,7-dihydroxyflavone] | 191.5 ± 22.9% | not significantly active |  | 3.4 ± 0.2 | 
O=c1cc(-c2ccco2)oc2cc(O)cc(O)c12 [Compound 11, 2-(Furan-2-yl)-5,7-dihydroxy-4H-chromen-4-one] | 129.7 ± 9.06% | contrarily |  | > 2.5 | 
O=c1cc(-c2ccncc2)oc2cc(O)cc(O)c12 [Compound 12, 5,7-Dihydroxy-2-(pyridin-4-yl)-4H-chromen-4-one] | 233.7 ± 15.7% | contrarily |  |  | 
O=c1ccoc2cc(O)cc(O)c12 [Compound 13, 5,7-dihydroxychromen-4-one, reference compound] | 71.2 ± 48.1% | no significant differences |  | 2.4 ± 0.1 | 
O=c1cc(-c2ccccc2)oc2c([C@@H]3O[C@H](CO)[C@@H](O)[C@H](O)[C@H]3O)c(O)cc(O)c12 [Compound 16, 8-(β-D-Glucopyranosyl)-5,7-dihydroxyflavone] | 142.0 ± 38.5% | absence of significant effects |  | 0.8 ± 0.3 | inhibition at 100 µM [4]: 20%; BuChE inhibitory efficacy (percentage of inhibition) ([5]; 100 µM compound): n.i .
O=c1cc(-c2ccc(O)cc2)oc2c([C@@H]3O[C@H](CO)[C@@H](O)[C@H](O)[C@H]3O)c(O)cc(O)c12 [Compound 17, 8-(β-D-Glucopyranosyl)-5,7,4′-trihydroxyflavone] |  | able to rescue cells from oxidative damage caused by H2O2; also recorded: able to fully recover cell viability |  |  | logD ([1]; pH 7.4, Log D7.4 (partition coefficient at pH 7.4)): 0.1 ± 0.1; MTT reduction (% control) ([2]; human, 50 μM): 85.0 ± 38.5%
O=c1ccoc2c([C@@H]3O[C@H](CO)[C@@H](O)[C@H](O)[C@H]3O)c(O)cc(O)c12 [Compound 22, 8-(β-D-Glucopyranosyl)-5,7-dihydroxy-4H-chromen-4-one] | 149.2 ± 21.6% | no significant differences | 19 | -2 ± 0.2 | AChE inhibitory efficacy (percentage of inhibition) [4]: n.i .
